According to ChEMBL document CHEMBL1129317, “Novel selective and partial agonists of 5-HT3 receptors. Part 1. Synthesis and biological evaluation of piperazinopyrrolothienopyrazines” (J Med Chem, 1996):

Assays:
[1] = molecular target: T1, 5-hydroxytryptamine receptor 1A (Homo sapiens, UniProt P08908); assay: Binding affinity for 5-hydroxytryptamine 1A receptor
T1 sequence (P08908 whole entry): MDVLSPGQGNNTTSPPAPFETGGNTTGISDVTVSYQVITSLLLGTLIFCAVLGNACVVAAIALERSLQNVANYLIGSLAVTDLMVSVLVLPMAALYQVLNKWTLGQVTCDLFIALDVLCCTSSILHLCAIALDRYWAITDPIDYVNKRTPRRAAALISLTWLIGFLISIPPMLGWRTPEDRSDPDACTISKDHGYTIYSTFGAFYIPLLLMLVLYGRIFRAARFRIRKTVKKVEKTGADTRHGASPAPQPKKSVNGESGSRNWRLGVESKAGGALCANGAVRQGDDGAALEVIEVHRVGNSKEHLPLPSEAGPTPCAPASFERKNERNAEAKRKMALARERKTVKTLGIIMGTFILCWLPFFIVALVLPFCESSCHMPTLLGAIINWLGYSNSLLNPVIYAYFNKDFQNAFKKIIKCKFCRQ

[2] = molecular target: Insulin receptor (Homo sapiens) (UniProt P06213); assay: Displacement of [3H]insulin from Insulin receptor at 10e-5 M
[3] = Inhibitory activity against Bradykinin receptor using [3H]bradykinin at […] (M)
[4] = molecular target: D(1A) dopamine receptor (Homo sapiens) (UniProt P21728); assay: Inhibitory activity against Dopamine receptor D1 using [3H]SCH-23,390 at […] (M)
[5] = molecular target: Kappa-type opioid receptor (Homo sapiens) (UniProt P41145); assay: Inhibitory activity against Opioid receptor kappa 1 using [3H]U-69593 at 10e-7 (M)
[6] = molecular target: Muscarinic acetylcholine receptor M2 (Homo sapiens) (UniProt P08172); assay: Inhibitory activity against Muscarinic acetylcholine receptor M2 using [3H]NMS at […] (M)
[7] = Inhibitory activity against Gamma-aminobutyric acid type B receptor using [3H]GABA at 10e-5 M
[8] = molecular target: T2, 5-hydroxytryptamine receptor 2C (Homo sapiens, UniProt P28335); assay: Binding affinity towards 5-hydroxytryptamine 2C receptor
T2 sequence (P28335 whole entry): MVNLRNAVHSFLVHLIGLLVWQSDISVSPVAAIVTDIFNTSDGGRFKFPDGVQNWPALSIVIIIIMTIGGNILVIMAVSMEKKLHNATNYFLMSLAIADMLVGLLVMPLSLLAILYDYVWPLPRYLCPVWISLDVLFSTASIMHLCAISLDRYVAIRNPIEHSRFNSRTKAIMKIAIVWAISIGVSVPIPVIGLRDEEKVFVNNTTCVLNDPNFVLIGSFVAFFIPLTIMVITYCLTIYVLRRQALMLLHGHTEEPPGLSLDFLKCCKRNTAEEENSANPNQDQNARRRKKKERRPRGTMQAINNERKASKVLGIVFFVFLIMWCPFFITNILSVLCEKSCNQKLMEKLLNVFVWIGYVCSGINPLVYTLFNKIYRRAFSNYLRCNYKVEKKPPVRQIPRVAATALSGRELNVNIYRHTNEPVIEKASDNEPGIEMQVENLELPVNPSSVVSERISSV

[9] = molecular target: GABA-A receptor; anion channel (Homo sapiens) (UniProt P14867+P47870+P18507+P28472+P48169+Q99928+Q9UN88+P34903+O00591+O14764+Q8N1C3+P18505+P78334+P47869+P31644+Q16445); assay: Inhibition of [3H]flunitrazepam binding to GABA-A central Benzodiazepine receptor at 10e-5 M; type: protein-complex assay
[10] = Inhibition of [3H]apamin binding to Potassium channel at 10e-5 M
[11] = molecular target: Glutamate [NMDA] receptor (Homo sapiens) (UniProt Q05586+Q12879+Q13224+O15399+O60391+Q14957+Q8TCU5); assay: Inhibitory activity against NMDA using [3H]CGS-19,755 at […] (M); type: protein-complex assay
[12] = molecular target: Adenosine receptor A1 (Homo sapiens) (UniProt P30542); assay: Inhibitory activity against Adenosine A1 receptor using [3H]DPCPX at […] (M)
[13] = molecular target: Adrenergic receptor alpha-1 (Homo sapiens) (UniProt P35348+P25100+P35368); assay: Inhibitory activity against Alpha-1 adrenergic receptor using [3H]-prazosin at 10e-5 (M); type: protein assay
[14] = molecular target: D(2) dopamine receptor (Homo sapiens) (UniProt P14416); assay: (§1) In vitro displacement from Dopamine receptor D2; conditions: concentration not given here
[15] = molecular target: Neuropeptide Y receptor type 1 (Homo sapiens) (UniProt P25929); assay: Inhibitory activity against Neuropeptide Y receptor type 1 using [3H]-NPY at 10e5 (M)
[16] = molecular target: Delta-type opioid receptor (Rattus norvegicus) (UniProt P33533); assay: Inhibitory activity against Opioid receptor delta 1 using [3H]Cl-phe-DPDPE at 10e-5 (M)
[17] = molecular target: Cholecystokinin receptor type A (Homo sapiens) (UniProt P32238); assay: Inhibitory activity against Cholecystokinin type A receptor using [3H]L-364718 at […] (M)
[18] = Inhibition of [3H]batrachotoxin binding to sodium channel at 10e-5 M
[19] = molecular target: Adenosine A2 receptor (Homo sapiens) (UniProt P29275+P29274); assay: Inhibitory activity against Adenosine A2 receptor using [3H]CGS-21680 at […] (M); type: protein assay
[20] = molecular target: Serotonin 3 (5-HT3) receptor (Rattus norvegicus) (UniProt P35563+Q9JJ16); assay: Antagonistic activity of compound towards 5-hydroxytryptamine 3 receptor in Von Bezold-Jarisch reflex in rats at 60 (ug/kg), evaluated as percent inhibition of bradycardia; type: functional
[21] = molecular target: Cysteinyl leukotriene receptor 1 (Homo sapiens) (UniProt Q9Y271); assay: Inhibitory activity against Cysteinyl leukotriene D4 receptor using [3H]- LTD4 at […] (M)
[22] = molecular target: D(2) dopamine receptor (Homo sapiens) (UniProt P14416); assay: as §1; conditions: concentration not given here; remark: listed apart in the source
[23] = Inhibition of [3H]batrachotoxin binding to sodium channel at 10e-7 M
[24] = molecular target: Thyrotropin-releasing hormone receptor (Homo sapiens) (UniProt P34981); assay: Inhibitory activity against TRH using [3H]TRH at 10e-5 (M)
[25] = Inhibitory activity against VIP using [125]VIP at 10e-5 (M)
[26] = molecular target: Interleukin-1 receptor type 1 (Homo sapiens) (UniProt P14778); assay: Inhibitory activity against Interleukin 1d using [3H]IL-1-alpha at […] (M)
Interleukin-1 receptor type 1 (Homo sapiens), sequence (P14778 whole entry): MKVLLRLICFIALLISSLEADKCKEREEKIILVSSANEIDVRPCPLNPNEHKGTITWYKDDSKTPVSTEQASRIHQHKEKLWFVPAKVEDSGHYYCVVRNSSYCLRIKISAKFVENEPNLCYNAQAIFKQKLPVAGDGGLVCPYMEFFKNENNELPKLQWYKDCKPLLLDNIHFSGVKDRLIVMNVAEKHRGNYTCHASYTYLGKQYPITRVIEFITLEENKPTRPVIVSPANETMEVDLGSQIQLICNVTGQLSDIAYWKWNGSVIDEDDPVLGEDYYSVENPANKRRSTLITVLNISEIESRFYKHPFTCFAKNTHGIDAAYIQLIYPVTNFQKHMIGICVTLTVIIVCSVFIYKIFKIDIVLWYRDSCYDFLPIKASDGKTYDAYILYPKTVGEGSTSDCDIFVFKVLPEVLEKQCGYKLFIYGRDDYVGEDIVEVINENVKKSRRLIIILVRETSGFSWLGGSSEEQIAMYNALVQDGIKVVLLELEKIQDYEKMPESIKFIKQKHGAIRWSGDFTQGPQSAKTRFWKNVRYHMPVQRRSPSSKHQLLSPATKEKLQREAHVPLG

D(2) dopamine receptor (Homo sapiens), sequence (P14416 whole entry): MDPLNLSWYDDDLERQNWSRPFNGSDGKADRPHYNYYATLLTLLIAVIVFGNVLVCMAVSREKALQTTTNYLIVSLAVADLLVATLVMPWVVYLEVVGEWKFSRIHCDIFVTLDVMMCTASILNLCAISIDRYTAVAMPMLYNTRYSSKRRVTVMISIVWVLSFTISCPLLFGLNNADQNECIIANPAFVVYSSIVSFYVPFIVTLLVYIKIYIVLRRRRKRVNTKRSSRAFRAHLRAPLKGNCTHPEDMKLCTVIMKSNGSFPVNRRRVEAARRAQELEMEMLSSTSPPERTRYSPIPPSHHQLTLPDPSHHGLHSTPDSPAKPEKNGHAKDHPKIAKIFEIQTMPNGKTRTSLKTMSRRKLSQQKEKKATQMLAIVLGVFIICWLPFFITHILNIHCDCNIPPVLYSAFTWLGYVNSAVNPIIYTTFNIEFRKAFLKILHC
Thyrotropin-releasing hormone receptor (Homo sapiens), sequence (P34981 whole entry): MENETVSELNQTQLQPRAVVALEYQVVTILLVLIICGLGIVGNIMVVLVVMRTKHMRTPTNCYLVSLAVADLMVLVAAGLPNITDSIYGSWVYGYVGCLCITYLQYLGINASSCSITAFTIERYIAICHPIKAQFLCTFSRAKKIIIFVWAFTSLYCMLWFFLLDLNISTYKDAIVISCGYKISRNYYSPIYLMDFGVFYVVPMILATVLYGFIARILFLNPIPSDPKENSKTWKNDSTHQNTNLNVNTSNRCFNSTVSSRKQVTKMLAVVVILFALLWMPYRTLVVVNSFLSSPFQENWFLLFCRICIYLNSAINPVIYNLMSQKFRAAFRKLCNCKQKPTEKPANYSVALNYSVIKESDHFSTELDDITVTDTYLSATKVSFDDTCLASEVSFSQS
D(1A) dopamine receptor (Homo sapiens), sequence (P21728 whole entry): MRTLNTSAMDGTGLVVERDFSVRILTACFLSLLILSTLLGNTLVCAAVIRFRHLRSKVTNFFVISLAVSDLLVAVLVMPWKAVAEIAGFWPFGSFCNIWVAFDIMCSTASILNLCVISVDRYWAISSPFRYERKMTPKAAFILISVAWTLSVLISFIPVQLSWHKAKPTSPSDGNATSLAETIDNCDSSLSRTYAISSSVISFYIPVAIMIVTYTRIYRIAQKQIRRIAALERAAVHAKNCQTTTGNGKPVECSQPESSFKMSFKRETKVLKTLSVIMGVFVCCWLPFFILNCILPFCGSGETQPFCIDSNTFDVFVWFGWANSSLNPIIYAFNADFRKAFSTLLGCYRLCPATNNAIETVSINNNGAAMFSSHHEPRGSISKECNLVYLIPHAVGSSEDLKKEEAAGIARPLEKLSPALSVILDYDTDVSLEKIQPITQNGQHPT
Kappa-type opioid receptor (Homo sapiens), sequence (P41145 whole entry): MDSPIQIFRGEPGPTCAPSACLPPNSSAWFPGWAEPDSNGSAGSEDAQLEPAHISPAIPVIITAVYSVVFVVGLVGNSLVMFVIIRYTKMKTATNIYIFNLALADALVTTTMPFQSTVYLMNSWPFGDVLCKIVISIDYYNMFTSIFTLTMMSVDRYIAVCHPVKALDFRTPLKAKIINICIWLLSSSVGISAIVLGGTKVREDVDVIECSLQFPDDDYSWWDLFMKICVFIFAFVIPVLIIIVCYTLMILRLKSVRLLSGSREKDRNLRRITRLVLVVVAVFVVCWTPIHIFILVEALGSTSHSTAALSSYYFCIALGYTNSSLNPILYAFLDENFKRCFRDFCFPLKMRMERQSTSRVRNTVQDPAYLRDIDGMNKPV
Muscarinic acetylcholine receptor M2 (Homo sapiens), sequence (P08172 whole entry): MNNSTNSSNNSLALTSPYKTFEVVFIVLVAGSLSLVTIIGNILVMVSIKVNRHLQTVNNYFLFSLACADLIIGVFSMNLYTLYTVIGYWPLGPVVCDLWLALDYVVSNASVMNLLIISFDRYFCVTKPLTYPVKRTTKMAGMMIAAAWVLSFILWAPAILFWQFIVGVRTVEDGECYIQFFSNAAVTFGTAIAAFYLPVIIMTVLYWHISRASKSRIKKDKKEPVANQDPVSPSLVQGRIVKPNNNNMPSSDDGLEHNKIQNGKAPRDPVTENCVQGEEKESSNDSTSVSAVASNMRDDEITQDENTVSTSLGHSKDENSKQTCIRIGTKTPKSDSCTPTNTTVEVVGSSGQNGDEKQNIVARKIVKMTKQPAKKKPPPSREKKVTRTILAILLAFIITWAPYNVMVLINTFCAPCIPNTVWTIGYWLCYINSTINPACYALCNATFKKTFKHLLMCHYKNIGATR
Delta-type opioid receptor (Rattus norvegicus), sequence (P33533 whole entry): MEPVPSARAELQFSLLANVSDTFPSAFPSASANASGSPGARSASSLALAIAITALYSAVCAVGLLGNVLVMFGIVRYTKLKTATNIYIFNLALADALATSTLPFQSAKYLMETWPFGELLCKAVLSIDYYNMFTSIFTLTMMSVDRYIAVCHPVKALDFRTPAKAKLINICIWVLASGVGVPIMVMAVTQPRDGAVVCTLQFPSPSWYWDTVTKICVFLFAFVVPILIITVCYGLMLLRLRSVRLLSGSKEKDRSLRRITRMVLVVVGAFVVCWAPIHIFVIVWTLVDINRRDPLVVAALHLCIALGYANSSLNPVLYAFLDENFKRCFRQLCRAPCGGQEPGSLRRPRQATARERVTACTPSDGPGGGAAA
Neuropeptide Y receptor type 1 (Homo sapiens), sequence (P25929 whole entry): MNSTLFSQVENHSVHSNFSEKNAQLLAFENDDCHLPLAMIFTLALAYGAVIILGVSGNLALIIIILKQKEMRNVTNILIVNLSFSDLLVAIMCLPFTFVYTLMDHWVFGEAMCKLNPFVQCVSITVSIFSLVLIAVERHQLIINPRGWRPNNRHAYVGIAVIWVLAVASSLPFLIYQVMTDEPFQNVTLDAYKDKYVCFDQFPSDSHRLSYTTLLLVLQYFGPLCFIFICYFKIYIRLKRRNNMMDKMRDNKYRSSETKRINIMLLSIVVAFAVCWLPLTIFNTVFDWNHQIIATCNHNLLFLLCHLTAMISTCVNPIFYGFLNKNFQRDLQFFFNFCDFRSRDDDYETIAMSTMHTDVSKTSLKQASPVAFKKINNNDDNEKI
Insulin receptor (Homo sapiens), sequence (P06213 28-758 limits assumed): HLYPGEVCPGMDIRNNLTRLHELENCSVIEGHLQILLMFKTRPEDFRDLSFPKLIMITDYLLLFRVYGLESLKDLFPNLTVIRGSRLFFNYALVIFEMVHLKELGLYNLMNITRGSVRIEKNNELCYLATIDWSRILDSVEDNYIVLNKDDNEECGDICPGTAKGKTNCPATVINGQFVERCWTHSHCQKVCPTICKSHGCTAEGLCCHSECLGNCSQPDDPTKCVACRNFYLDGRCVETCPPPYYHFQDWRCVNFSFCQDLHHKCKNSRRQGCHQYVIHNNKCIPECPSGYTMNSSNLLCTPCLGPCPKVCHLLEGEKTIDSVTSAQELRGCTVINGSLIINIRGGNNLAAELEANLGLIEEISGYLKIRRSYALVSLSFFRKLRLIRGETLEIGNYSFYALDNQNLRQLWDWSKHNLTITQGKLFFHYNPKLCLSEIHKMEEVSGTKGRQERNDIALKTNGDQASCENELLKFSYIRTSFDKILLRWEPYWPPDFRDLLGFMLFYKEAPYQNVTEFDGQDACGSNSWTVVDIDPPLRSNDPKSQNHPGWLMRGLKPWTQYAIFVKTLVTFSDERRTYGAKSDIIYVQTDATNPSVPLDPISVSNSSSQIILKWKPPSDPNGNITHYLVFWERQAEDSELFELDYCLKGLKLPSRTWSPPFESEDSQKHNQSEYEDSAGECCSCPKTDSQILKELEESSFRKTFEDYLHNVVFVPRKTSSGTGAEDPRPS
Insulin receptor (Homo sapiens), sequence (P06213 763-1382 limits assumed): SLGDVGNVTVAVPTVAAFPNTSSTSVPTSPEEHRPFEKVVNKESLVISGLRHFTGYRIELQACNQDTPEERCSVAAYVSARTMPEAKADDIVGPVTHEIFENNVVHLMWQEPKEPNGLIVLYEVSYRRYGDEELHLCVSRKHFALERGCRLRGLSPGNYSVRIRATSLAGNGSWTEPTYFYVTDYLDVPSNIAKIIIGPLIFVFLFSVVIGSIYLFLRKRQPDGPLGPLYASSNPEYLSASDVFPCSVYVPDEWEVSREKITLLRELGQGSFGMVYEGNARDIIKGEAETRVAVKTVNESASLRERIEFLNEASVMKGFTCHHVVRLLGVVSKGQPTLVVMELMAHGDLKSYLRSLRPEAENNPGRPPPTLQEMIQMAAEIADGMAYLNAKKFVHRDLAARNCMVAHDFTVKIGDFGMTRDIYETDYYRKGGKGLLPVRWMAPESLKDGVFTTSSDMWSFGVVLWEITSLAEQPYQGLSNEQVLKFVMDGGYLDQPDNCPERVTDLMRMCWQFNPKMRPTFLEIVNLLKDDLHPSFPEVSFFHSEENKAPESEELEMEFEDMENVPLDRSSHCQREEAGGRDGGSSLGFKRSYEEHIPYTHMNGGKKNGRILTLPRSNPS

## c1ccc(CN2CCN(c3nc4ccsc4n4cccc34)CC2)cc1
[1]
  IC50: 0.398 µM
[2]
  inhibition: 15%
[3]
  inhibition: 28%
[4]
  inhibition: 14%
[5]
  inhibition: 10%
[6]
  inhibition: 5%
[7]
  inhibition: 40%
[8]
  IC50: 1.86 µM
[9]
  inhibition: 5%
[10]
  inhibition: 6%
[11]
  inhibition: 19%
[12]
  inhibition: 23%
[13]
  inhibition: 26%
[14]
  inhibition: 5%
[15]
  inhibition: 4%
[16]
  inhibition: 14%
[17]
  inhibition: 7%
[18]
  inhibition: 79%
[19]
  inhibition: 4%
[20]
  Change: 40%
[21]
  inhibition: 1%
[22]
  inhibition: 86%
[23]
  inhibition: 28%
[24]
  inhibition: 12%
[25]
  inhibition: 6%
[26]
  inhibition: 1%
